In patent US7238697B2, “Pyridylpyrimidines for use as pesticides” (Bayer CropScience AG, priority 2001, dated 2007):

Assay: log P determination by HPLC (reversed-phase C18), EEC Directive 79/831 Annex V.A8
Type: physicochemical
Settings: pH 2.3
Procedure: The stated log P values were determined in accordance with EEC Directive 79/831 Annex V.A8 by HPLC (High Performance Liquid Chromatography) using a reversed-phase column, (C 18). Temperature: 43° C. Mobile phases for the determination in the acidic range: 0.1% aqueous phosphoric acid, acetonitrile; linear gradient from 10% acetonitrile to 90% acetonitrile. Calibration was carried out using unbranched alkan-2-ones (having 3 to 16 carbon atoms) with known logP values (determination of the logP values by the retention times using linear interpolation between two successive alkanones).
`NC(=O)OCCOC(=O)CSc1nccc(-c2ccccn2)n1` [Example 177] gave a chromatographic logP of 1.41.

Same assay, conditions: pH 2.3; HPLC, reversed-phase C 18, 43° C., 0.1% aqueous phosphoric acid/acetonitrile; read-out: log P (pH 2.3)
`O=C(CSc1nccc(-c2ccccn2)n1)OCC(F)(F)C(F)(F)C(F)(F)F` [Example 119] gave a chromatographic logP of 3.37.

Same assay, conditions: reversed-phase C18 HPLC column; pH 2.3; HPLC, reversed-phase C 18, 43° C., 0.1% aqueous phosphoric acid/acetonitrile; read-out: log P (pH 2.3)
With `N#CCCCCOC(=O)CSc1nccc(-c2ccccn2)n1` [Example 95] the chromatographic logP was 2.29. With `CC(C)=CCOC(=O)CSc1nccc(-c2ccccn2)n1` [Example 96] the chromatographic logP was 3.18. In the case of `CCOCCOC(=O)CSc1nccc(-c2ccccn2)n1` [Example 98], the chromatographic logP was 2.34. With `O=C(CSc1nccc(-c2ccccn2)n1)OCCN1CCCCC1` [Example 99] the chromatographic logP was 1.04. `CCCCOC(=O)CSc1nccc(-c2ccccn2)n1` [Example 100] gave a chromatographic logP of 3.07. With `COC(=O)CSc1nc(-c2ccccn2)cc(-c2ccccn2)n1` [Example 101] the chromatographic logP was 2.81. With `CCOC(=O)CSc1nccc(-c2cc(C)ccn2)n1` [Example 102] the chromatographic logP was 2.2. Work on `COC(=O)CSc1nccc(-c2cc(C)ccn2)n1` [Example 103] yielded a chromatographic logP of 1.8. For `CCOC(=O)CSc1nccc(-c2cccc(OCC)n2)n1` [Example 104], the chromatographic logP was 3.67. Compound `CCOC(=O)CSc1nccc(-c2cccc(C)n2)n1` [Example 105] has a chromatographic logP of 2.46. Compound `COC(=O)CSc1nc(-c2ccccn2)cc(-c2ccco2)n1` [Example 106] has a chromatographic logP of 3.01. With `COC(=O)CSc1nc(-c2ccc(OC)cc2)cc(-c2ccccn2)n1` [Example 107] the chromatographic logP was 3.5. Compound `COC(=O)C[S+]([O-])c1nccc(-c2ccccn2)n1` (centres unmarked) [Example 108] has a chromatographic logP of 0.89. `COC(=O)CSc1nc(-c2ccccc2)cc(-c2ccccn2)n1` [Example 109] showed a chromatographic logP of 3.57. For `O=C(CSc1nccc(-c2ccccn2)n1)OCCCN1CCCCC1` [Example 110], the chromatographic logP was 1.13. Work on `CCOC(=O)CSc1nccc(-c2cccc(Cl)n2)n1` [Example 111] yielded a chromatographic logP of 3.19. `COC(=O)CSc1nc(-c2ccccn2)cc(C(C)C)n1` [Example 112] showed a chromatographic logP of 3.11. With `CCOC(=O)C(F)Sc1nccc(-c2ccccn2)n1` (centres unmarked) [Example 113] the chromatographic logP was 2.55. Compound `COC(=O)CSc1nc(-c2ccccn2)cc(C(F)(F)F)n1` [Example 114] has a chromatographic logP of 3.34. In the case of `CCOC(=S)CSc1nccc(-c2ccccn2)n1` [Example 115], the chromatographic logP was 3.3. Work on `O=C(CSc1nccc(-c2ccccn2)n1)OCC(F)F` [Example 116] yielded a chromatographic logP of 2.25. Work on `O=C(CSc1nccc(-c2ccccn2)n1)OCC(F)(F)F` [Example 117] yielded a chromatographic logP of 2.69. In the case of `O=C(CSc1nccc(-c2ccccn2)n1)OCC(F)(F)C(F)(F)F` [Example 118], the chromatographic logP was 3.24. `O=C(CSc1nccc(-c2ccccn2)n1)OC(C(F)(F)F)C(F)(F)F` [Example 120] showed a chromatographic logP of 3.59. Work on `CC(OC(=O)CSc1nccc(-c2ccccn2)n1)C(F)(F)F` (centres unmarked) [Example 121] yielded a chromatographic logP of 3.06. `O=C(CSc1nccc(-c2ccccn2)n1)OCCC(F)(F)F` [Example 122] showed a chromatographic logP of 2.26. In the case of `O=C(CSc1nccc(-c2ccccn2)n1)OCC(Cl)Cl` [Example 123], the chromatographic logP was 2.78. Work on `O=C(CSc1nccc(-c2ccccn2)n1)OCc1ccc(Cl)nc1` [Example 124] yielded a chromatographic logP of 2.31. `O=C(CSc1nccc(-c2ccccn2)n1)OCC(Cl)(Cl)Cl` [Example 125] gave a chromatographic logP of 3.31. Compound `O=C(CSc1nccc(-c2ccccn2)n1)OCCCl` [Example 126] has a chromatographic logP of 2.29. `O=C(CSc1nccc(-c2ccccn2)n1)OC1COCOC1` [Example 127] gave a chromatographic logP of 1.76. For `CCOC(=O)CSc1nccc(-c2ccc(C)cn2)n1` [Example 128], the chromatographic logP was 2.5. Compound `CC(C)(C)C(=O)OCCNC(=O)NCCCOC(=O)CSc1nccc(-c2ccccn2)n1` [Example 129] has a chromatographic logP of 2.51. With `CC(C)(C)c1ccc(NC(=O)NCCCOC(=O)CSc2nccc(-c3ccccn3)n2)cc1` [Example 130] the chromatographic logP was 3.51. In the case of `CC(C)COC(=O)c1cccc(NC(=O)NCCCOC(=O)CSc2nccc(-c3ccccn3)n2)c1` [Example 131], the chromatographic logP was 3.45. Work on `O=C(NCCCOC(=O)CSc1nccc(-c2ccccn2)n1)Nc1cccc2c1CCCC2` [Example 133] yielded a chromatographic logP of 3.06. Compound `NNC(=O)CSc1nccc(-c2ccccn2)n1` [Example 134] has a chromatographic logP of 0.43. `O=C(CSc1nccc(-c2ccccn2)n1)N/N=C/c1ccc([N+](=O)[O-])cc1` [Example 135] showed a chromatographic logP of 2.23. In the case of `CC(C)=NNC(=O)CSc1nccc(-c2ccccn2)n1` [Example 136], the chromatographic logP was 0.44. `O=C(CSc1nccc(-c2ccccn2)n1)NCc1cc(C(F)(F)F)cc(C(F)(F)F)c1` [Example 137] gave a chromatographic logP of 3.22. Work on `O=C(CSc1nccc(-c2ccccn2)n1)NCc1ccccc1SC(F)(F)F` [Example 138] yielded a chromatographic logP of 2.92. In the case of `O=C(NCCCOC(=O)CSc1nccc(-c2ccccn2)n1)Nc1ccc(Cl)cc1Cl` [Example 139], the chromatographic logP was 3.2. `CS(=O)(=O)NC(=O)CSc1nccc(-c2ccccn2)n1` [Example 140] gave a chromatographic logP of 1.13. For `CC(C)(C)OC(=O)NCCOC(=O)CSc1nccc(-c2ccccn2)n1` [Example 141], the chromatographic logP was 2.63. `CC(C)(C)OC(=O)NCCCOC(=O)CSc1nccc(-c2ccccn2)n1` [Example 142] gave a chromatographic logP of 2.79. `N#Cc1ccc(NC(=O)NCCOC(=O)CSc2nccc(-c3ccccn3)n2)cc1` [Example 146] showed a chromatographic logP of 2.3. In the case of `O=C(NCCOC(=O)CSc1nccc(-c2ccccn2)n1)Nc1ccc(C(F)(F)F)cc1` [Example 147], the chromatographic logP was 3.04. In the case of `CC(C)(C)c1ccc(NC(=O)NCCOC(=O)CSc2nccc(-c3ccccn3)n2)cc1` [Example 148], the chromatographic logP was 3.35. `CC(C)COC(=O)c1cccc(NC(=O)NCCOC(=O)CSc2nccc(-c3ccccn3)n2)c1` [Example 149] gave a chromatographic logP of 3.01. `CCOC(=O)c1cc(NC(=O)NCCOC(=O)CSc2nccc(-c3ccccn3)n2)ccc1Cl` [Example 150] gave a chromatographic logP of 4.95. In the case of `O=C(NCCOC(=O)CSc1nccc(-c2ccccn2)n1)Nc1cccc2c1CCCC2` [Example 151], the chromatographic logP was 2.94. `N#Cc1ccc(NC(=O)NCCCOC(=O)CSc2nccc(-c3ccccn3)n2)cc1` [Example 152] gave a chromatographic logP of 2.45. In the case of `O=C(NCCCOC(=O)CSc1nccc(-c2ccccn2)n1)Nc1ccc(C(F)(F)F)cc1` [Example 153], the chromatographic logP was 3.2. In the case of `O=C(CSc1nccc(-c2ccccn2)n1)OCC1CCCC1` [Example 154], the chromatographic logP was 3.6. `CC1(COC(=O)CSc2nccc(-c3ccccn3)n2)COC1` [Example 158] showed a chromatographic logP of 1.98. For `O=C(CSc1nccc(-c2ccccn2)n1)OCC1CCCCC1` [Example 159], the chromatographic logP was 4. `O=C(CSc1nccc(-c2ccccn2)n1)OCCN1CCNC1=S` [Example 160] gave a chromatographic logP of 1.59. Work on `CC(CN1CCOCC1)OC(=O)CSc1nccc(-c2ccccn2)n1` (centres unmarked) [Example 161] yielded a chromatographic logP of 1.16. With `NC(=O)COC(=O)CSc1nccc(-c2ccccn2)n1` [Example 163] the chromatographic logP was 1.11. `COC(COC(=O)CSc1nccc(-c2ccccn2)n1)OC` [Example 164] showed a chromatographic logP of 2.05. In the case of `O=C(CSc1nccc(-c2ccccn2)n1)OCCCN1CCCC1=O` [Example 165], the chromatographic logP was 1.64. Compound `C=CC(C)(C)COC(=O)CSc1nccc(-c2ccccn2)n1` [Example 168] has a chromatographic logP of 3.48. Work on `CCNC(=S)NCCOC(=O)CSc1nccc(-c2ccccn2)n1` [Example 172] yielded a chromatographic logP of 1.79. `O=C(CSc1nccc(-c2ccccn2)n1)OC1CS(=O)(=O)C1` [Example 173] gave a chromatographic logP of 1.67. Compound `COCNC(=O)OCCOC(=O)CSc1nccc(-c2ccccn2)n1` [Example 175] has a chromatographic logP of 1.64. In the case of `Cc1cnn(CCOC(=O)CSc2nccc(-c3ccccn3)n2)n1` [Example 176], the chromatographic logP was 1.93. For `CN(C)C(=O)SCCOC(=O)CSc1nccc(-c2ccccn2)n1` [Example 178], the chromatographic logP was 2.2. `COC(C)(C)COC(=O)CSc1nccc(-c2ccccn2)n1` [Example 179] gave a chromatographic logP of 2.29. In the case of `CSCC(C)(C)COC(=O)CSc1nccc(-c2ccccn2)n1` [Example 186], the chromatographic logP was 3.46. In the case of `CC(=O)NCC(C)OC(=O)CSc1nccc(-c2ccccn2)n1` (centres unmarked) [Example 188], the chromatographic logP was 1.97. In the case of `COCC(C)(C)COC(=O)CSc1nccc(-c2ccccn2)n1` [Example 190], the chromatographic logP was 3.05. Work on `CC(C)/C=N/CCOC(=O)CSc1nccc(-c2ccccn2)n1` [Example 191] yielded a chromatographic logP of 2.02. `O=C(CSc1nccc(-c2ccccn2)n1)OCC1COC(=O)O1` (centres unmarked) [Example 192] gave a chromatographic logP of 1.63. With `CC1(C)OCC(CCOC(=O)CSc2nccc(-c3ccccn3)n2)O1` (centres unmarked) [Example 193] the chromatographic logP was 2.46. With `CC(C)OC(=O)C(C)OC(=O)CSc1nccc(-c2ccccn2)n1` (centres unmarked) [Example 194] the chromatographic logP was 2.95. Work on `CC(C)(F)COC(=O)CSc1nccc(-c2ccccn2)n1` [Example 196] yielded a chromatographic logP of 2.66. `Cc1scnc1CCOC(=O)CSc1nccc(-c2ccccn2)n1` [Example 197] showed a chromatographic logP of 1.79. With `CCC1(COC(=O)CSc2nccc(-c3ccccn3)n2)CCO1` (centres unmarked) [Example 198] the chromatographic logP was 2.2. With `CCOC(=O)C1CC1COC(=O)CSc1nccc(-c2ccccn2)n1` (centres unmarked) [Example 199] the chromatographic logP was 2.64. In the case of `COC(=O)CCCOC(=O)CSc1nccc(-c2ccccn2)n1` [Example 200], the chromatographic logP was 2.21. `Cn1ccnc1COC(=O)CSc1nccc(-c2ccccn2)n1` [Example 201] gave a chromatographic logP of 1.02. `CSC(C)COC(=O)CSc1nccc(-c2ccccn2)n1` (centres unmarked) [Example 203] gave a chromatographic logP of 2.78. In the case of `O=C(CSc1nccc(-c2ccccn2)n1)OCCc1ccncc1` [Example 204], the chromatographic logP was 1.2. `CC(C)(C)C(Cl)COC(=O)CSc1nccc(-c2ccccn2)n1` (centres unmarked) [Example 205] showed a chromatographic logP of 3.81.
